According to patent publication US8592629B2, “Sulfonamide derivatives as Nav 1.7 inhibitors” (Pfizer Limited, priority 2010, dated 2013):

Target: T1, Nav1.7 (or SCN9A) channel (Homo sapiens, UniProt Q15858)
T1 construct: expressed in transfected cells
Assay: Nav1.7 (hSCN9A) block in HEK cells, PatchXpress 7000 automated electrophysiology, estimated IC50 (EIC50)
Assay type: cell-based
Conditions: PatchXpress assay; HEK cells stably transfected with hSCN9A, voltage-clamped at V1/2 of inactivation
Experimental: The ability of the compounds of formula (I) to block the Nav1.7 (or SCN9A) channel were measured using the assay described below.
Human Embryonic Kidney (HEK) cells were transfected with an hSCN9A construct using lipofectamine reagent (Invitrogen), using standard techniques. Cells stably expressing the hSCN9A constructs were identified by their resistance to G-418 (400 μg/ml). Clones were screened for expression using the whole-cell voltage-clamp technique.
HEK cells stably transfected with hSCN9A were maintained in DMEM medium supplemented with 10% heat-inactivated fetal bovine serum and 400 μg/ml G-418 in an incubator at 37° C. with a humidified atmosphere of 10% CO2. For HTS, cells were harvested from flasks by trypsinization and replated in an appropriate multi-well plate (typically 96 or 384 wells/plate) such that confluence would be achieved within 24 hours of plating. For electrophysiological studies, cells were removed from the culture flask by brief trypsinization and re-plated at low density onto glass cover slips. Cells were typically used for electrophysiological experiments within 24 to 72 hours after plating.
HEK cells stably transfected with hSCN9A were viewed under Hoffman contrast optics and placed in front of an array of flow pipes emitting either control or compound-containing extracellular solutions. All compounds were dissolved in dimethyl sulfoxide to make 10 mM stock solutions, which were then diluted into extracellular solution to attain the final concentrations desired. […] The voltage-dependence of inactivation was determined by applying a series of depolarizing prepulses (8 sec long in 10 mV increments) from a negative holding potential. The voltage was then immediately stepped to 0 mV to assess the magnitude of the sodium current. Currents elicited at 0 mV were plotted as a function of prepulse potential to allow estimation of the voltage at which 50% of the channels were inactivated (midpoint of inactivation or V1/2). Compounds were tested for their ability to inhibit hSCN9A sodium channels by activating the channel with a 20 msec voltage step to 0 mV following an 8 second conditioning prepulse to the empirically determined V1/2. Compound effect (% inhibition) was determined by difference in current amplitude before and after application of test compounds. For ease of comparison, “estimated IC-50” (EIC50) values were calculated from single point electrophysiology data by the following equation, (tested concentration, uM) X (100-% inhibition/% inhibition). Inhibition values <20% and >80% were excluded from the calculation.
Electrophysiological assays were conducted with PatchXpress 7000 hardware and associated software (Molecular Devices Corp). All assay buffers and solutions were identical to those used in conventional whole-cell voltage clamp experiments described above. hSCN9A cells were grown as above to 50%-80% confluency and harvested by trypsinization. Trypsinized cells were washed and resuspended in extracellular buffer at a concentration of 1×10^6 cells/ml. The onboard liquid handling facility of the PatchXpress was used for dispensing cells and application of test compounds. Determination of the voltage midpoint of inactivation was as described for conventional whole-cell recordings. Cells were then voltage-clamped to the empirically determined V1/2 and current was activated by a 20 msec voltage step to 0 mV.
Compounds of the Examples were tested in the assays described above and found to have the Nav1.7 EIC50 (μM) values specified in the table below. All data are derived from the PatchXpress assay unless explicitly stated otherwise.

T1 sequence (Q15858 whole entry): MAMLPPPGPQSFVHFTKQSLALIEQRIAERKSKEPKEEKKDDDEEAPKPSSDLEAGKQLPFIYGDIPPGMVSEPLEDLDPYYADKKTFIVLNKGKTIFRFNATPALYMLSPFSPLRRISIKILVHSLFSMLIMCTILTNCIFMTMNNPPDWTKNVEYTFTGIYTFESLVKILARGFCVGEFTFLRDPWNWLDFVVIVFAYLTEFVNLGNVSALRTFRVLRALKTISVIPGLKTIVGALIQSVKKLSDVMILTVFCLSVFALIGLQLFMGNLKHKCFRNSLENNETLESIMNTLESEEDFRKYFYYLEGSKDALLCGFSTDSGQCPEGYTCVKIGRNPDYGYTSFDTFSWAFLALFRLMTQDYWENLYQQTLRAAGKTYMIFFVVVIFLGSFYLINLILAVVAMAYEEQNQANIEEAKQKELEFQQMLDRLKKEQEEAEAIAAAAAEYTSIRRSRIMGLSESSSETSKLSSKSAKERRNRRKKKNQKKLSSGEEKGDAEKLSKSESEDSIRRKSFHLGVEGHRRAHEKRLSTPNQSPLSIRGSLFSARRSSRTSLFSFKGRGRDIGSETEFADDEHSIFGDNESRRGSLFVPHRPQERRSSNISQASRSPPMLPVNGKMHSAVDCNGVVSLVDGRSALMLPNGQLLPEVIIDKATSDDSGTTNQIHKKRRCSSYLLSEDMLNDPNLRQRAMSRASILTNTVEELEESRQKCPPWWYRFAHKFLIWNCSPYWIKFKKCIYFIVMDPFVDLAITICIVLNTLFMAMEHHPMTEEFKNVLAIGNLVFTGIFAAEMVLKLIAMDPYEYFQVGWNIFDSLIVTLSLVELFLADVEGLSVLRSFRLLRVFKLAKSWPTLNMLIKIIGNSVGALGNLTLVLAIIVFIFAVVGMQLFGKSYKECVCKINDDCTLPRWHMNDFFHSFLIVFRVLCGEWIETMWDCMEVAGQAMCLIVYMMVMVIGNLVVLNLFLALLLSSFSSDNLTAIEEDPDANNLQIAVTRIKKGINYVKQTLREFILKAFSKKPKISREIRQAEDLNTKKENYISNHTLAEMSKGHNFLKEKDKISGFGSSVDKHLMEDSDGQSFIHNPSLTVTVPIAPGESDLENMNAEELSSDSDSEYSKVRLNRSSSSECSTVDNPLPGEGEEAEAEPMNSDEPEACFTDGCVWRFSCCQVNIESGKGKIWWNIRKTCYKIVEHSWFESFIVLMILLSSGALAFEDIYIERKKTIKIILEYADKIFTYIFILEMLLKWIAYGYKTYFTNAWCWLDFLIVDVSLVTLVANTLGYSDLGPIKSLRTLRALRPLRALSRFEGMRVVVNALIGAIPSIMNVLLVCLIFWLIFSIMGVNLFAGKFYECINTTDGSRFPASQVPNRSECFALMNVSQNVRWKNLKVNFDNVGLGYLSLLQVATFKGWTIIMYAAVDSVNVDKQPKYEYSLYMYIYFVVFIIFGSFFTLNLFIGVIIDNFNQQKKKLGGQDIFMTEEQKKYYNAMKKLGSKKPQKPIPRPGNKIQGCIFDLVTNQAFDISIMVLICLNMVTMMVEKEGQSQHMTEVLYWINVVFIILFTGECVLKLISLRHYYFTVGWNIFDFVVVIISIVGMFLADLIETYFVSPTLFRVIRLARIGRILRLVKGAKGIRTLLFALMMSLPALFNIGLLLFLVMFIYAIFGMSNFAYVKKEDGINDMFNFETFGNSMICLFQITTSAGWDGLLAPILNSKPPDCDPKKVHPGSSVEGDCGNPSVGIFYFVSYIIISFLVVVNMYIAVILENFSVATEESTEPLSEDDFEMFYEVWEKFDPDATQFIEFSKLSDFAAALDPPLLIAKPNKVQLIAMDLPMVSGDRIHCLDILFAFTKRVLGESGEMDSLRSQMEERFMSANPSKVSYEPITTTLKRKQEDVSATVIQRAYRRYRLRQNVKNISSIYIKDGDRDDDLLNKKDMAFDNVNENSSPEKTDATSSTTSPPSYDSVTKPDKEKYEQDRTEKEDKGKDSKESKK

SMILES	IC50 [nM]
CC(C)Oc1ncc(Oc2ccc(C(=O)NS(C)(=O)=O)c(F)c2)cc1Cl [Example 36, 4-[(5-chloro-6-isopropoxypyridin-3-yl)oxy]-2-fluoro-N-(methylsulfonyl)benzamide]	310
CS(=O)(=O)NC(=O)c1cc(Cl)c(Oc2cnc(OC3CCOCC3)c(Cl)c2)cc1F [Example 37, 5-chloro-4-{[5-chloro-6-(tetrahydro-2H-pyran-4-yloxy)pyridin-3-yl]oxy}-2-fluoro-N-(methylsulfonyl)benzamide]	140
CC(C)COc1ncc(Oc2cc(F)c(C(=O)NS(C)(=O)=O)cc2Cl)cc1Cl [Example 38, 5-chloro-4-[(5-chloro-6-isobutoxypyridin-3-yl)oxy]-2-fluoro-N-(methylsulfonyl)benzamide]	7.5
CC(F)(F)c1ncc(Oc2cc(F)c(C(=O)NS(C)(=O)=O)cc2Cl)cc1Cl [Example 44, 5-chloro-4-{[5-chloro-6-(1,1-difluoroethyl)pyridin-3-yl]oxy}-2-fluoro-N-(methylsulfonyl)benzamide]	560
CC(C)Oc1ccc(Oc2cc(F)c(C(=O)NS(C)(=O)=O)cc2F)cn1 [Example 47, 2,5-difluoro-4-[(6-isopropoxypyridin-3-yl)oxy]-N-(methylsulfonyl)benzamide]	680
CC(C)(O)c1ncc(Oc2cc(F)c(C(=O)NS(C)(=O)=O)cc2Cl)cc1Cl [Example 48, 5-chloro-4-{[5-chloro-6-(1-hydroxy-1-methylethyl)pyridin-3-yl]oxy}-2-fluoro-N-(methylsulfonyl)benzamide]	3500
CS(=O)(=O)NC(=O)c1cc(Cl)c(Oc2cnc(OC3CC3)c(Cl)c2)cc1F [Example 55, 5-chloro-4-{[5-chloro-6-(cyclopropyloxy)pyridin-3-yl]oxy}-2-fluoro-N-(methylsulfonyl)benzamide]	48
CS(=O)(=O)NC(=O)c1cc(Cl)c(Oc2cnc(OCC(F)(F)C(F)(F)F)c(Cl)c2)cc1F [Example 56, 5-chloro-4-{[5-chloro-6-(2,2,3,3,3-pentafluoropropoxy)pyridin-3-yl]oxy}-2-fluoro-N-(methylsulfonyl)benzamide]	13
CS(=O)(=O)NC(=O)c1cc(Cl)c(Oc2cnc(OCC(F)(F)F)c(Cl)c2)cc1F [Example 58, 5-chloro-4-{[5-chloro-6-(2,2,2-trifluoroethoxy)pyridin-3-yl]oxy}-2-fluoro-N-(methylsulfonyl)benzamide]	23
CC(C)C(F)(F)c1ncc(Oc2cc(F)c(C(=O)NS(C)(=O)=O)cc2Cl)cc1Cl [Example 60, 5-chloro-4-{[5-chloro-6-(1,1-difluoro-2-methylpropyl)pyridin-3-yl]oxy}-2-fluoro-N-(methylsulfonyl)benzamide]	140
CC(C)Oc1ncc(Oc2cc(F)c(C(=O)NS(C)(=O)=O)cc2Cl)cn1 [Example 61, 5-chloro-2-fluoro-4-[(2-isopropoxypyrimidin-5-yl)oxy]-N-(methylsulfonyl)benzamide]	5500
CS(=O)(=O)NC(=O)c1cc(F)c(Oc2cnc(OC3CCC(F)(F)CC3)c(Cl)c2)cc1F [Example 65, 4-({5-chloro-6-[(4,4-difluorocyclohexyl)oxy]pyridin-3-yl}oxy)-2,5-difluoro-N-(methylsulfonyl)benzamide]	650

The remaining lines, values ahead:

IC50 [nM]	SMILES
41	CS(=O)(=O)NC(=O)c1cc(F)c(Oc2cnc(OCC3CC3)c(Cl)c2)cc1F [Example 35, 4-{[5-chloro-6-(cyclopropylmethoxy)pyridin-3-yl]oxy}-2,5-difluoro-N-(methylsulfonyl)benzamide]
25	CC(C)Oc1ncc(Oc2cc(F)c(C(=O)NS(C)(=O)=O)cc2Cl)cc1Cl [Example 39, 5-chloro-4-[(5-chloro-6-isopropoxypyridin-3-yl)oxy]-2-fluoro-N-(methylsulfonyl)benzamide]
130	[2H]C([2H])([2H])C([2H])(Oc1ncc(Oc2cc(F)c(C(=O)NS(C)(=O)=O)cc2F)cc1Cl)C([2H])([2H])[2H] [Example 40, -({5-chloro-6-[d7-propan-2-yloxy]pyridin-3-yl}oxy)-2,5-difluoro-N-(methylsulfonyl)benzamide]
190	[2H]C(C)(C)Oc1ncc(Oc2cc(F)c(C(=O)NS(C)(=O)=O)cc2F)cc1Cl [Example 41, 4-({5-chloro-6-[2-d1-propan-2-yloxy]pyridin-3-yl}oxy)-2,5-difluoro-N-(methylsulfonyl)benzamide]
11	CC(Oc1ncc(Oc2cc(F)c(C(=O)NS(C)(=O)=O)cc2Cl)cc1Cl)C(F)(F)F (centres unmarked) [Example 43, 5-chloro-4-{[5-chloro-6-(2,2,2-trifluoro-1-methylethoxy)pyridin-3-yl]oxy}-2-fluoro-N-(methylsulfonyl)benzamide]
110	CS(=O)(=O)NC(=O)c1cc(F)c(Oc2cnc(OCC(F)(F)C(F)F)c(Cl)c2)cc1F [Example 45, 4-{[5-chloro-6-(2,2,3,3-tetrafluoropropoxy)pyridin-3-yl]oxy}-2,5-difluoro-N-(methylsulfonyl)benzamide]
760	CC(C)Cc1ncc(Oc2cc(F)c(C(=O)NS(C)(=O)=O)cc2F)cc1Cl [Example 49, 4-[(5-chloro-6-isobutylpyridin-3-yl)oxy]-2,5-difluoro-N-(methylsulfonyl)benzamide]
160	CS(=O)(=O)NC(=O)c1cc(F)c(Oc2cnc(C3CC3)c(Cl)c2)cc1F [Example 50, 4-[(5-chloro-6-cyclopropylpyridin-3-yl)oxy]-2,5-difluoro-N-(methylsulfonyl)benzamide]
270	CC(C)(C)c1ncc(Oc2cc(F)c(C(=O)NS(C)(=O)=O)cc2F)cc1Cl [Example 51, 4-[(6-tert-butyl-5-chloropyridin-3-yl)oxy]-2,5-difluoro-N-(methylsulfonyl)benzamide]
160	CS(=O)(=O)NC(=O)c1cc(Cl)c(Oc2cnc(OCC(F)F)c(Cl)c2)cc1F [Example 52, 5-chloro-4-{[5-chloro-6-(2,2-difluoroethoxy)pyridin-3-yl]oxy}-2-fluoro-N-(methylsulfonyl)benzamide]
260	CS(=O)(=O)NC(=O)c1cc(Cl)c(Oc2cnc(OC(CF)CF)c(Cl)c2)cc1F [Example 53, 5-chloro-4-({5-chloro-6-[2-fluoro-1-(fluoromethyl)ethoxy]pyridin-3-yl}oxy)-2-fluoro-N-(methylsulfonyl)benzamide]
180	CS(=O)(=O)NC(=O)c1cc(Cl)c(Oc2cnc(OC(F)F)c(Cl)c2)cc1F [Example 54, 5-chloro-4-{[5-chloro-6-(difluoromethoxy)pyridin-3-yl]oxy}-2-fluoro-N-(methylsulfonyl)benzamide]
94	CC(C)(F)COc1ncc(Oc2cc(F)c(C(=O)NS(C)(=O)=O)cc2Cl)cc1Cl [Example 57, 5-chloro-4-{[5-chloro-6-(2-fluoro-2-methylpropoxy)pyridin-3-yl]oxy}-2-fluoro-N-(methylsulfonyl)benzamide]
240	CS(=O)(=O)NC(=O)c1cc(F)c(Oc2cnc(OCCC(F)(F)F)c(Cl)c2)cc1F [Example 62, 4-{[5-chloro-6-(3,3,3-trifluoropropoxy)pyridin-3-yl]oxy}-2,5-difluoro-N-(methylsulfonyl)benzamide]
160	CC(C)(F)COc1ncc(Oc2cc(F)c(C(=O)NS(C)(=O)=O)cc2F)cc1Cl [Example 63, 4-{[5-chloro-6-(2-fluoro-2-methylpropoxy)pyridin-3-yl]oxy}-2,5-difluoro-N-(methylsulfonyl)benzamide]
28	CS(=O)(=O)NC(=O)c1cc(F)c(Oc2cnc(OCC(F)(F)C(F)(F)F)c(Cl)c2)cc1F [Example 64, 4-{[5-chloro-6-(2,2,3,3,3-pentafluoropropoxy)pyridin-3-yl]oxy}-2,5-difluoro-N-(methylsulfonyl)benzamide]
650	CS(=O)(=O)NC(=O)c1cc(F)c(Oc2cnc(OCC(F)F)c(Cl)c2)cc1F [Example 66, 4-{[5-chloro-6-(2,2-difluoroethoxy)pyridin-3-yl]oxy}-2,5-difluoro-N-(methylsulfonyl)benzamide]
